# Where two headings read alike, the source gives them in different places. Where a SMILES comes first, the peptide text is derived from it.
# Tests used:
# [1] = Tryptophan-to-alanine GarA variants, antibacterial activity; type: cell-based; conditions: in combination with the other peptides of Garvicin KS
# Method: The three tryptophan residues in GarA were replaced one by one with alanine (Table 9). Antibacterial activity was tested when used in combination with the other peptides of Garvicin KS.
# L. lactis IL1403 = type: cell-based, Lactococcus lactis
# Method: The bacteriocin activity was assayed using a microtitre plate assay (Holo et al., 1991, supra). The plates were incubated at 30° C. for 8 h and the growth was measured spectrophotometrically at 600 nm (A600) with 15 min intervals using SPECTROstarNano (BMG LABTECH, Germany). The MIC was defined as the minimal bacteriocin concentration that inhibited the growth of the indicator strain by at least 50% (50% of the turbidity of the control culture without bacteriocin) in 200 μl culture. MIC is equal to one bacteriocin unit (BU).
# All the peptides in the experiments were synthesized by Pepmic Co., LTD, China with 90-99% purity except for CerHA, CerHB and CerVC (85% purity). Aureocin A70F is almost identical to bacteriocin AureocinA70, both being made up of four peptides (peptide A, B, C and D) but in peptide D of Aureocin A70F leucine 29 is replaced with phenylalanine (EWU40578.1). Synthesized peptides were solubilized to a concentration of 0.1 to 10 mg/ml in 0.1% (vol/vol) trifluoroacetic acid and stored at −20° C. until use.
# The three identified peptides termed GarKosA, GarKosB and GarKosC were chemically synthesized and tested for antimicrobial activity. The antimicrobial activity of the individual peptides was assessed against L. lactis IL1403 (Table 6).
"MIC, single peptide (L. lactis IL1403; IL1403, 8 h)",Molecule,further results
–,MGAIIKAGAKIVGKGVLGGGASWLGANVGEKIWK (Altered Sequence of GarA from Lactococcus garvieae with W26A Mutation) [GarA-26A],antibacterial activity in words [1]: no antibacterial activity
–,CC[C@H](C)[C@H](NC(=O)[C@H](C)NC(=O)CNC(=O)[C@@H](N)CCSC)C(=O)N[C@H](C(=O)N[C@@H](CCCCN)C(=O)N[C@@H](C)C(=O)NCC(=O)N[C@@H](C)C(=O)N[C@@H](CCCCN)C(=O)N[C@H](C(=O)N[C@H](C(=O)NCC(=O)N[C@@H](CCCCN)C(=O)NCC(=O)N[C@@H](C)C(=O)N[C@@H](CC(C)C)C(=O)N[C@H](C(=O)NCC(=O)NCC(=O)NCC(=O)N[C@H](C(=O)N[C@@H](Cc1c[nH]c2ccccc12)C(=O)N[C@@H](CC(C)C)C(=O)N[C@@H](C)C(=O)N[C@@H](CCC(=O)O)C(=O)N[C@@H](CCCCN)C(=O)N[C@@H](CC(C)C)C(=O)N[C@@H](Cc1ccccc1)C(=O)NCC(=O)NCC(=O)N[C@@H](CCCCN)C(=O)O)C(C)C)[C@@H](C)O)C(C)C)[C@@H](C)CC)[C@@H](C)CC [Kos C] (H-MGAIIKAGAKIVGKGALTGGGVWLAEKLFGGK-OH; N-terminus and C-terminus assumed),"MIC, single peptide (L. lactis IL1403; L. lactis IL1403, synthetic single peptide, >=50% growth inhibition): 6 µM"
>6 µM,CC[C@H](C)[C@H](NC(=O)[C@H](CCCCN)NC(=O)[C@H](CCCCN)NC(=O)[C@H](CC(C)C)NC(=O)CNC(=O)CNC(=O)[C@H](Cc1ccc(O)cc1)NC(=O)[C@@H](NC(=O)[C@H](C)NC(=O)CNC(=O)CNC(=O)[C@H](C)NC(=O)[C@@H](NC(=O)CNC(=O)CNC(=O)[C@H](C)NC(=O)[C@H](Cc1ccccc1)NC(=O)[C@H](C)NC(=O)[C@H](CCCCN)NC(=O)CNC(=O)[C@H](CC(C)C)NC(=O)[C@H](CCSC)NC(=O)[C@H](CCCCN)NC(=O)[C@@H](NC(=O)[C@H](C)NC(=O)[C@H](C)NC(=O)CNC(=O)[C@@H](N)CCSC)C(C)C)C(C)C)[C@@H](C)O)C(=O)N[C@@H](Cc1ccccc1)C(=O)NCC(=O)O [CerV B] (H-MGAAVKMLGKAFAGGVAGGATYGGLKKIFG-OH; N-terminus and C-terminus assumed),–
>6 µM,CC[C@H](C)[C@H](NC(=O)[C@H](CCCNC(=N)N)NC(=O)[C@@H](NC(=O)CNC(=O)[C@H](C)NC(=O)[C@H](CCC(=O)O)NC(=O)[C@H](Cc1c[nH]c2ccccc12)NC(=O)CNC(=O)[C@H](CC(C)C)NC(=O)[C@H](Cc1c[nH]c2ccccc12)NC(=O)[C@H](CO)NC(=O)[C@H](C)NC(=O)[C@H](C)NC(=O)[C@@H](NC(=O)CNC(=O)CNC(=O)[C@@H](NC(=O)[C@@H](NC(=O)[C@H](CCCCN)NC(=O)[C@H](CC(C)C)NC(=O)CNC(=O)CNC(=O)[C@H](CCCCN)NC(=O)[C@@H](NC(=O)[C@@H](NC(=O)[C@H](C)NC(=O)CNC(=O)[C@@H](N)CCSC)C(C)C)C(C)C)[C@@H](C)CC)[C@@H](C)CC)[C@@H](C)O)[C@@H](C)O)C(=O)N[C@@H](Cc1c[nH]c2ccccc12)C(=O)N[C@@H](CCCCN)C(=O)O [CerV C] (H-MGAVVKGGLKIIGGTAASWLGWEAGTRIWK-OH; N-terminus and C-terminus assumed),–

# From US10781236B2, “Bacteriocin composition and method” (priority 2015, dated 2020)
